Laboratory results taken from patent US20160229835A1, “NOVEL PYRIDYLOXYACETYL TETRAHYDROISOQUINOLINE COMPOUNDS USEFUL AS NAMPT INHIBITORS” (ELI LILLY AND COMPANY, priority 2013, published 2016).

System: A2780 Cancer Cells
Test: LC-MS Analysis of NAD+ and Carbohydrate Metabolites in A2780 Cancer Cells
Format: cell-based
Details: for Metabolite Levels (μM) DHAP / Metabolite Levels (μM) FBP / Metabolite Levels (μM) FP / Metabolite Levels (μM) NAD / Metabolite Levels (μM) SP / Metabolite Levels (μM) HP: A2780 cells, 24 hours
Protocol: The purpose of this assay is to measure effects of NAMPT inhibitors on NAD^+ formation in cancer cells. LC-MS analysis of NAD^+ metabolites: nicotinamide mononucleotide (NMN), NAD^+, reduced nicotinamide adenine dinucleotide (NADH), and nicotinamide adenine dinucleotide phosphate (NADP) is performed on an HPLC system coupled to a Thermo Quantum Ultra triple quadrupole mass spectrometer operated in positive heated electrospray mode with selected reaction monitoring detection. For cell extracts, 50 μL of extract and 10 μL of 10 μM internal standard (IS) solution is transferred to a 96-well plate, dried under nitrogen and reconstituted in 50 μL of water. For tissue extracts, 20 μL of extract and 10 μL of IS solution are dried and reconstituted in 50 μL water. The IS solution contains 10 μM nicotinamide-d4 (C/D/N Isotopes), nicotinic acid-d4 (C/D/N Isotopes), nicotinamide mononucleotide-d4 (prepared by custom synthesis) and nicotinamide 1,N^6-ethenoadenine dinucleotide in methanol. The metabolites are separated on a Waters XBRIDGE™ Amide (2.1×50 mm, 3 μm) with an injection volume of 10 μL and a flow rate of 1 mL/minute using 10 mM ammonium acetate in 95% acetonitrile for mobile phase A and 10 mM ammonium acetate in 50% acetonitrile for mobile phase B. The gradient is as follows: 0 minutes, 0% B; 2.5 minutes, 70% B; 2.51 minutes, 100% B; 2.8 minutes, 100% B; 2.81 minutes, 0% B, 3.6 minutes, 0% B.
The purpose of this assay is to measure effects of NAMPT inhibitors on the levels of metabolites such as glucose-6-phosphate/fructose-6-phosphate/fructose-1-phosphate collectively as hexose phosphate (HP), fructose-1,6-bisphosphate (FBP), glyceraldehyde-3-phosphate (G3P), dihydroxyacetone phosphate (DHAP), 3-phosphoglycerate (3PG), 2-phosphoglycerate (2PG), phosphoenoylpyruvate (PEP), gluconate-6-phosphate (GN6P), xylulose-5-phosphate (X5P), ribulose-5-phosphate (Ru5P), ribose-5-phosphate (R5P), sedoheptulose-7-phosphate/sedoheptulose-1-phosphate collectively as sedoheptulose phosphate (SP), erythrose-4-phosphate (E4P), and α-ketoglutarate (α-KG) derived from glycolysis, the TCA cycle, and the pentose-phosphate pathway in tumor cells. Cells (50,000/well) are grown as described above in 100 μL of Dulbecco's Modified Eagle Medium supplemented with 10% FBS (dialyzed) and 25 mM glucose, and treated with a compound in triplicates in the presence or absence of 10 μM nicotinic acid. After 24 hours of treatment, the growth medium is removed and 200 μL of 80% methanol is added to each well. After incubation at room temperature for 15 minutes, the resulting extracts are transferred to 96-deep-well plates and washed twice with 200 μL of 80% methanol/water. Then, the plates are heat sealed and stored at −80° C., or dried and reconstituted in 100 μL of 25 μM ethylenediaminetetraacetic acid and injected into LC-MS for analysis.
The LC-MS analysis for carbohydrate metabolites is performed as follows. Chromatographic separations are performed with an HPLC system, which is coupled to an AB Sciex triple quadrupole LC-MS mass spectrometer. Analytes with phosphates are analyzed as follows. The samples are dried and reconstituted in ACN/water solutions and are separated on a Phenomenex Luna amino HPLC column (2.1×30 mm 3 μm) under the conditions as described by Yuan et al. (Nature Protocols, 2012, […], 872-881.). The mass spectrometer is operated under negative ESI MRM mode.

CC(C)(O)CS(=O)(=O)Nc1ccc2c(c1)CCN(C(=O)COc1cccnc1)C2 [Example 1, 2-Hydroxy-2-methyl-N-[2-[2-(3-pyridyloxy)acetyl]-3,4-dihydro-1H-isoquinolin-6-yl]propane-1-sulfonamide]
NAD formation (A2780 cancer cells, in words): dose-dependent inhibition
glycolytic intermediates (HP, FBP, and DHAP/G3P) before and at the G3P dehydrogenase step (A2780 cancer cells, in words): dose-dependent increase
intermediates (PEP, and PG) after the G3P dehydrogenase step (A2780 cancer cells, in words): dose-dependent decrease
key intermediates of the pentose phosphate pathway including SP (A2780 cancer cells, in words): increased
Metabolite Levels (μM) DHAP (compound 0.000508 μM): 0.6 µM
Metabolite Levels (μM) FBP (compound 0.000508 μM): 2.5 µM
Metabolite Levels (μM) FP (compound 0.000508 μM): 1.9 µM
Metabolite Levels (μM) NAD (compound 0.000508 μM): 0.331 µM
Metabolite Levels (μM) SP (compound 0.000508 μM): 0.3 µM
Metabolite Levels (μM) DHAP (compound 0.00152 μM): 0.6 µM
Metabolite Levels (μM) FBP (compound 0.00152 μM): 3.0 µM
Metabolite Levels (μM) FP (compound 0.00152 μM): 2.1 µM
Metabolite Levels (μM) NAD (compound 0.00152 μM): 0.244 µM
Metabolite Levels (μM) SP (compound 0.00152 μM): 0.3 µM
Metabolite Levels (μM) DHAP (compound 0.00457 μM): 0.6 µM
Metabolite Levels (μM) FBP (compound 0.00457 μM): 4.1 µM
Metabolite Levels (μM) FP (compound 0.00457 μM): 2.4 µM
Metabolite Levels (μM) NAD (compound 0.00457 μM): 0.089 µM
Metabolite Levels (μM) SP (compound 0.00457 μM): 0.4 µM
Metabolite Levels (μM) DHAP (compound 0.0137 μM): 1.0 µM
Metabolite Levels (μM) FBP (compound 0.0137 μM): 7.2 µM
Metabolite Levels (μM) FP (compound 0.0137 μM): 3.0 µM
Metabolite Levels (μM) NAD (compound 0.0137 μM): 0.027 µM
Metabolite Levels (μM) SP (compound 0.0137 μM): 0.5 µM
Metabolite Levels (μM) DHAP (compound 0.0412 μM): 2.0 µM
Metabolite Levels (μM) FBP (compound 0.0412 μM): 19.3 µM
Metabolite Levels (μM) FP (compound 0.0412 μM): 7.6 µM
Metabolite Levels (μM) NAD (compound 0.0412 μM): 0.014 µM
Metabolite Levels (μM) SP (compound 0.0412 μM): 1.3 µM
Metabolite Levels (μM) DHAP (compound 0.123 μM): 3.8 µM
Metabolite Levels (μM) FBP (compound 0.123 μM): 34.3 µM
Metabolite Levels (μM) FP (compound 0.123 μM): 15.1 µM
Metabolite Levels (μM) NAD (compound 0.123 μM): 0.008 µM
Metabolite Levels (μM) SP (compound 0.123 μM): 2.6 µM
Metabolite Levels (μM) DHAP (compound 0.37 μM): 5.0 µM
Metabolite Levels (μM) FBP (compound 0.37 μM): 40.9 µM
Metabolite Levels (μM) FP (compound 0.37 μM): 17.2 µM
Metabolite Levels (μM) NAD (compound 0.37 μM): 0.010 µM
Metabolite Levels (μM) SP (compound 0.37 μM): 3.2 µM
Metabolite Levels (μM) DHAP (compound 1.111 μM): 5.4 µM
Metabolite Levels (μM) FBP (compound 1.111 μM): 38.6 µM
Metabolite Levels (μM) FP (compound 1.111 μM): 18.0 µM
Metabolite Levels (μM) NAD (compound 1.111 μM): 0.008 µM
Metabolite Levels (μM) SP (compound 1.111 μM): 3.3 µM
Metabolite Levels (μM) DHAP (compound 3.333 μM): 5.2 µM
Metabolite Levels (μM) FBP (compound 3.333 μM): 43.0 µM
Metabolite Levels (μM) FP (compound 3.333 μM): 18.8 µM
Metabolite Levels (μM) NAD (compound 3.333 μM): 0.007 µM
Metabolite Levels (μM) SP (compound 3.333 μM): 3.4 µM
Metabolite Levels (μM) DHAP (compound 10 μM): 5.5 µM
Metabolite Levels (μM) FBP (compound 10 μM): 39.7 µM
Metabolite Levels (μM) FP (compound 10 μM): 17.1 µM
Metabolite Levels (μM) NAD (compound 10 μM): 0.008 µM
Metabolite Levels (μM) SP (compound 10 μM): 2.8 µM

COCCS(=O)(=O)Nc1ccc2c(c1)CCN(C(=O)COc1cccnc1)C2 [Example 2, 2-Methoxy-N-[2-[2-(3-pyridyloxy)acetyl]-3,4-dihydro-1H-isoquinolin-6-yl]ethanesulfonamide]
Metabolite Levels (μM) DHAP (compound 0.000508 μM): 0.5 µM
Metabolite Levels (μM) FBP (compound 0.000508 μM): 1.4 µM
Metabolite Levels (μM) HP (compound 0.000508 μM): 1.6 µM
Metabolite Levels (μM) NAD (compound 0.000508 μM): 0.527 µM
Metabolite Levels (μM) SP (compound 0.000508 μM): 0.2 µM
Metabolite Levels (μM) DHAP (compound 0.00152 μM): 0.9 µM
Metabolite Levels (μM) FBP (compound 0.00152 μM): 1.8 µM
Metabolite Levels (μM) HP (compound 0.00152 μM): 1.6 µM
Metabolite Levels (μM) NAD (compound 0.00152 μM): 0.457 µM
Metabolite Levels (μM) SP (compound 0.00152 μM): 0.2 µM
Metabolite Levels (μM) DHAP (compound 0.00457 μM): 3.2 µM
Metabolite Levels (μM) FBP (compound 0.00457 μM): 2.2 µM
Metabolite Levels (μM) HP (compound 0.00457 μM): 1.6 µM
Metabolite Levels (μM) NAD (compound 0.00457 μM): 0.255 µM
Metabolite Levels (μM) SP (compound 0.00457 μM): 0.2 µM
Metabolite Levels (μM) DHAP (compound 0.0137 μM): 6.3 µM
Metabolite Levels (μM) FBP (compound 0.0137 μM): 3.2 µM
Metabolite Levels (μM) HP (compound 0.0137 μM): 1.9 µM
Metabolite Levels (μM) NAD (compound 0.0137 μM): 0.087 µM
Metabolite Levels (μM) SP (compound 0.0137 μM): 0.3 µM
Metabolite Levels (μM) DHAP (compound 0.0412 μM): 6.5 µM
Metabolite Levels (μM) FBP (compound 0.0412 μM): 6.4 µM
Metabolite Levels (μM) HP (compound 0.0412 μM): 2.8 µM
Metabolite Levels (μM) NAD (compound 0.0412 μM): 0.039 µM
Metabolite Levels (μM) SP (compound 0.0412 μM): 0.5 µM
Metabolite Levels (μM) DHAP (compound 0.123 μM): 7.1 µM
Metabolite Levels (μM) FBP (compound 0.123 μM): 15.5 µM
Metabolite Levels (μM) HP (compound 0.123 μM): 7.2 µM
Metabolite Levels (μM) NAD (compound 0.123 μM): 0.023 µM
Metabolite Levels (μM) SP (compound 0.123 μM): 1.3 µM
Metabolite Levels (μM) DHAP (compound 0.37 μM): 7.1 µM
Metabolite Levels (μM) FBP (compound 0.37 μM): 22.8 µM
Metabolite Levels (μM) HP (compound 0.37 μM): 11.0 µM
Metabolite Levels (μM) NAD (compound 0.37 μM): 0.022 µM
Metabolite Levels (μM) SP (compound 0.37 μM): 2.2 µM
Metabolite Levels (μM) DHAP (compound 1.111 μM): 7.3 µM
Metabolite Levels (μM) FBP (compound 1.111 μM): 24.1 µM
Metabolite Levels (μM) HP (compound 1.111 μM): 11.8 µM
Metabolite Levels (μM) NAD (compound 1.111 μM): 0.017 µM
Metabolite Levels (μM) SP (compound 1.111 μM): 2.5 µM
Metabolite Levels (μM) DHAP (compound 3.333 μM): 7.6 µM
Metabolite Levels (μM) FBP (compound 3.333 μM): 23.4 µM
Metabolite Levels (μM) HP (compound 3.333 μM): 12.8 µM
Metabolite Levels (μM) NAD (compound 3.333 μM): 0.02 µM
Metabolite Levels (μM) SP (compound 3.333 μM): 2.5 µM
Metabolite Levels (μM) DHAP (compound 10 μM): 7.7 µM
Metabolite Levels (μM) FBP (compound 10 μM): 21.5 µM
Metabolite Levels (μM) HP (compound 10 μM): 10.9 µM
Metabolite Levels (μM) NAD (compound 10 μM): 0.02 µM
Metabolite Levels (μM) SP (compound 10 μM): 2.1 µM
